What all share (assay type): in vivo
The subject of assay [1] is corn. Briefly: Example 6, Procedure II: Herbicide No. 1 + alachlor (No. 7) with antidotes. A digest of the protocol: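 Herbicide No. 1 plus alachlor and antidote, each applied in acetone, mixed into silt loam cover soil over seeded corn; untreated and herbicide-only controls included. Given initial overhead irrigation equal to 0.6 cm rainfall, then greenhouse sub-irrigation. Percent injury scored, duplicate averages; efficacy is injury without minus with antidote.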

Assay [2] has as its system corn. Briefly: Example 7, Procedure II: Herbicide No. 1 + metolachlor (No. 12) with antidotes. A digest of the protocol: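 Herbicide plus antidote, applied in acetone, mixed into silt loam top soil used to cover corn seed beds, with untreated and herbicide-only controls. After incorporation, containers got overhead irrigation equal to 0.6 cm rainfall, then sub-irrigation in greenhouse. Percent injury scored; antidote efficacy is injury difference; duplicate averages.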

Assay [3] relates to corn. Briefly: Example 18, Procedure II: Herbicide No. 1 + ERADICANE (EPTC + R-25788) with auxiliary antidotes. The gist of the method: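 Corn seeded in silt loam and covered with soil into which herbicide and antidote, in acetone, were mixed; EPTC given as ERADICANE (with R-25788) at 8.96 kg/ha. Overhead irrigation equal to 0.6 cm rainfall, then greenhouse sub-irrigation. Percent injury scored; antidote efficacy as injury difference with versus without antidote.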

The test system of assay [4] is corn. Briefly: Example 21, Procedure II: Herbicide No. 1 + SUTAN PLUS (butylate + antidote) with antidotes. Here is the method: (§1) Containers were filled and compacted with a fumigated silt loam top soil to a depth of about 1.3 cm from the top of the container. A first container was designated as an untreated control, a second container was designated as a herbicide control, and a third container was designated as a herbicide + antidote test container. Each of the containers was seeded with a crop species. A measured amount of herbicide dispersed or dissolved in acetone was applied to a measured quantity of soil. To this same quantity of soil treated with herbicide, there was added a measured amount of antidote dispersed or dissolved in acetone. The quantity of soil treated with the herbicide and antidote was thoroughly mixed to incorporate the herbicide and antidote in the soil uniformly. The seed bed in the third container of soil was covered with the soil treated with the herbicide and antidote and the container was leveled. For each test series, the seed beds of the first and second containers were likewise covered by soil layers. the cover layer of the first container was not treated with herbicide or antidote.
(§2) The containers were then placed on a bench in a greenhouse and sub-irrigated as required for the duration of the test. […] Plant response is measured in terms of percent injury. Antidote efficacy is indicated as the difference in plant injury by the herbicide(s) without the antidote and with the antidote.
(§3) This procedure is the same as Procedure I, but modified in the manner that after incorporation of the chemicals (herbicide and antidote) the containers with the covered seedbed were treated with an initial overhead irrigation equivalent to 0.6 cm rainfall, then subsequently sub-irrigated as required on greenhouse benches.
(§4) In this example, tests were conducted as in the preceding Examples 18-20, except here the co-herbicidal component was SUTAN® PLUS, a commercial product comprising as the active herbicidal ingredient the compound butylate (Herbicide No. 10) and an antidote […] (Antidote No. 1). Again, the antidotal compounds herein were Nos. 1, 2, 7, 13 and 15. Procedure II was used.

Assay [5] deals with barnyardgrass (Echinochloa crusgalli). Briefly: Example 22: retest of Example 21 at reduced greenhouse temperatures. To be noted: Table 22. On the procedure:
as §1, §2, §3
(§5) In the series of greenhouse tests described below, for routine screening purposes the herbicide/antidote compositions were tested in crop/weed combinations involving corn as the crop and either or both of the weeds barnyardgrass (Echinochloa crusgalli), a monocotyledonous weed, and velvetleaf (Abutilon theophrasti), a dicotyledonous weed. In the tables below, these weeds are indicated by the symbols "BYG" and "VL", respectively.
as §4
(§6) The experiments in this example were designed as a retest of those described in Example 21 in view of the uncharacteristically poor corn safety and weed control, believed to have resulted from unseasonably high temperatures in the greenhouse. Accordingly, temperatures were reduced for these tests.

The subject of assay [6] is velvetleaf (Abutilon theophrasti). Described as above. To be noted: Table 22. On the procedure: as §1, §2, §3, §5, §4, §6
The mark [7] stands for this setting: Herbicide No.1 0.14 + No.7 4.48 kg/ha + antidote 2.24 kg/ha.
[8] abbreviates: Herbicide No.1 0.14 + No.7 4.48 kg/ha + antidote 8.96 kg/ha.
The mark [9] stands for this setting: Herbicide No.1 0.56 + No.7 4.48 kg/ha + antidote 2.24 kg/ha.
[10] abbreviates: Herbicide No.1 0.56 + No.7 4.48 kg/ha + antidote 8.96 kg/ha.
[11] abbreviates: Herbicide No.1 0.14 + No.12 3.36 kg/ha + antidote 2.24 kg/ha.
Setting [12] is: Herbicide No.1 0.14 + No.12 3.36 kg/ha + antidote 8.96 kg/ha.
Setting [13] is: Herbicide No.1 0.56 + No.12 3.36 kg/ha + antidote 2.24 kg/ha.
Setting [14] is: Herbicide No.1 0.56 + No.12 3.36 kg/ha + antidote 8.96 kg/ha.
[15] abbreviates: Herbicide No.1 0.56 kg/ha + ERADICANE 8.96 kg/ha, antidote 2.24 kg/ha.
Setting [16] is: Herbicide No.1 0.56 kg/ha + ERADICANE 8.96 kg/ha, antidote 8.96 kg/ha.
Where [17] appears, read: Herbicide No.1 1.12 kg/ha + ERADICANE 8.96 kg/ha, antidote 2.24 kg/ha.
The mark [18] stands for this setting: Herbicide No.1 1.12 kg/ha + ERADICANE 8.96 kg/ha, antidote 8.96 kg/ha.
Where [19] appears, read: Herbicide No.1 0.56 kg/ha + SUTAN + 8.96 kg/ha, antidote 2.24 kg/ha.
Setting [20] is: Herbicide No.1 0.56 kg/ha + SUTAN + 8.96 kg/ha, antidote 8.96 kg/ha.
Setting [21] is: Herbicide No.1 1.12 kg/ha + SUTAN + 8.96 kg/ha, antidote 2.24 kg/ha.
Setting [22] is: Herbicide No.1 1.12 kg/ha + SUTAN + 8.96 kg/ha, antidote 8.96 kg/ha.
Setting [23] is: Herbicide No.1 0.56 Kg/ha + SUTAN + 8.96 Kg/ha + antidote 2.24 Kg/ha.
Where [24] appears, read: Herbicide No.1 0.56 Kg/ha + SUTAN + 8.96 Kg/ha + antidote 8.96 Kg/ha.
Setting [25] is: Herbicide No.1 1.12 Kg/ha + SUTAN + 8.96 Kg/ha + antidote 2.24 Kg/ha.
[26] abbreviates: Herbicide No.1 1.12 Kg/ha + SUTAN + 8.96 Kg/ha + antidote 8.96 Kg/ha.

In the case of `C=CCN(CC=C)C(=O)C(Cl)Cl` [compound 1], the “% Injury Corn” value is listed as 10% in the assay with corn [1] (setting [7]); 0% in the assay on corn [1] (setting [8]); 15% with corn [1] (setting [9]); 5% with corn [1] (setting [10]); 0% in the assay with corn [2] (setting [11]); 0% with corn [2] (setting [12]). Besides, the “% Injury Corn” value in the assay with corn [2] (setting [13]) is given as 0%; with corn [2] (setting [14]), 10%; with corn [3] (setting [15]), 30%; in the assay on corn [3] (setting [16]) it was 25%; in the assay on corn [3] (setting [17]) it was 35%; in the assay on corn [3] (setting [18]), 25%. Also, the “% Injury Corn” value was 15% in the assay with corn [4] (setting [19]), 15% with corn [4] (setting [20]), 30% in the assay on corn [4] (setting [21]) and 20% in the assay with corn [4] (setting [22]). Also, the “% Injury BYG” value is 93% in assay [5] (setting [23]), 90% in assay [5] (setting [24]), 85% in assay [5] (setting [25]) and 90% in assay [5] (setting [26]). For the same compound, the “% Injury VL” value in assay [6] (setting [23]), in assay [6] (setting [24]), in assay [6] (setting [25]) and in assay [6] (setting [26]) was 80% in each case.

With `O=C(C(Cl)Cl)N1CCOC12CCCCC2` [compound 7], the “% Injury Corn” value in the assay with corn [1] (setting [7]) was 0%; in the assay with corn [1] (setting [8]), 10%; in the assay with corn [1] (setting [9]), 10%; in the assay with corn [1] (setting [10]), 5%; in the assay with corn [2] (setting [11]), 10%; in the assay on corn [2] (setting [12]), 10%. The “% Injury Corn” value with corn [2] (setting [14]) amounted to 15%; with corn [3] (setting [15]), 15%; with corn [3] (setting [16]), 20%; with corn [3] (setting [17]), 15%; in the assay with corn [3] (setting [18]) it was 10%; in the assay on corn [4] (setting [19]) it was 5%. The “% Injury Corn” value with corn [4] (setting [20]) is 20%; with corn [4] (setting [21]), 15%; with corn [4] (setting [22]), 15%. For the same compound, the “% Injury BYG” value is recorded as 90% in assay [5] (setting [23]), 90% in assay [5] (setting [24]), 95% in assay [5] (setting [25]) and 80% in assay [5] (setting [26]). In addition, the “% Injury VL” value in assay [6] (setting [23]) came out at 80%; in assay [6] (setting [24]), 75%; in assay [6] (setting [25]), 97%; in assay [6] (setting [26]), 70%.

On to `CC1(C(Cl)Cl)OCCO1` [compound 13], for which the “% Injury Corn” value in the assay on corn [1] (setting [7]) came out at 0%; with corn [1] (setting [8]), 0%; with corn [1] (setting [9]) it was 5%; in the assay on corn [1] (setting [10]), 15%; in the assay on corn [2] (setting [11]), 0%; with corn [2] (setting [12]) it was 0%. In addition, the “% Injury Corn” value is 10% with corn [2] (setting [13]); 10% in the assay on corn [2] (setting [14]); 10% in the assay with corn [3] (setting [15]); 20% in the assay on corn [3] (setting [16]); 10% with corn [3] (setting [17]); 40% in the assay with corn [3] (setting [18]). For the same compound, the “% Injury Corn” value in the assay with corn [4] (setting [19]) stood at 0%; with corn [4] (setting [20]), 10%; in the assay on corn [4] (setting [21]), 5%; with corn [4] (setting [22]), 10%. Further, the “% Injury BYG” value in assay [5] (setting [23]) was 90%; in assay [5] (setting [24]), 90%; in assay [5] (setting [25]), 95%; in assay [5] (setting [26]), 93%. In addition, the “% Injury VL” value in assay [6] (setting [23]) is recorded as 85%; in assay [6] (setting [24]), 95%; in assay [6] (setting [25]), 95%; in assay [6] (setting [26]), 90%.

For the origin of these results see patent EP0603240B1, “SAFENING HERBICIDAL PYRAZOLYLSULFONYLUREAS” (priority 1991, dated 1993).
